Series [1] has as its target EGFR WT (Homo sapiens, UniProt P00533). In words: Kinase inhibition assay (mobility shift). Format: biochemical. An outline of the steps: (§1)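 Caliper mobility-shift read of substrate conversion after kinase-compound preincubation 10 min at room temperature, then ATP/substrate addition and reaction at room temperature. Ten-point 3-fold dilutions from 3,000 or 100 nM top; IC50 from variable-slope four-parameter fit of percent inhibition.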

In series [2] the target is EGFR Δ19del/T790M/C797S (Homo sapiens, UniProt P00533, T790M/C797S, form not given). The series is described as follows: Kinase inhibition assay (mobility shift). In kind it is biochemical. The method, boiled down: as §1
Series [3] concerns the target IGF1R (Homo sapiens, UniProt P08069). In words: Kinase inhibition assay (mobility shift). Format: biochemical. An outline of the steps: as §1
The target of series [4] is Ba/F3 EGFR WT (Homo sapiens, UniProt P00533). The series is described as follows: Cell proliferation experiment (CellTiter Glo, 72 hours). Format: cell-based. As to conditions: for GI50: read-out: BaF3 EGFR WT IC50. The method, boiled down: (§2)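 Ba/F3 cells overexpressing EGFR Δ19del/T790M/C797S or EGFR WT were seeded at 2000 or 3000 cells/well and exposed 72 h to 9 compound concentrations (3-fold, top 10000 or 1111 nM final, 0.1% DMSO). CellTiter-Glo luminescence gave survival inhibition versus controls; IC50 from nonlinear fit.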
Background: ATP-based viability assays read luminescence as a measure of living cells.

The target of series [5] is Ba/F3-Δ19del/T790M/C797S (Homo sapiens, UniProt P00533, T790M/C797S, cells depend on it, form not given). Described as above. Particulars: for GI50: read-out: Ba/F3/EGFR Δ19del/T790M/C797S IC50. In kind it is cell-based. The method, boiled down:
as §2

Series [6] deals with human epidermal cancer cells A431 carrying EGFR WT. Described as above. In kind it is cell-based. Particulars: for IC50: Homo sapiens, A-431. An outline of the steps:
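Cells seeded at 2000 or 3000/well and exposed 72 h to 9-point 3-fold dilutions, top final 10000 nM or 1111 nM, 0.1% DMSO. Viability by CellTiter-Glo luminescence. Inhibition relative to cell and medium controls; IC50 by four-parameter nonlinear regression.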

Series [7] is described as follows: In vivo efficacy data of Comparative example 1 cited from WO2019/015655A1, TGI and ED50 calculated. Particulars: nonlinear fitting of dosage vs TGI calculated from cited data, FIG. 1. How it is done:
Moreover, the data of Comparative example 1 (in the patent WO2019/015655A1) was cited in Table 4, and the TGI of each administration group was calculated. Nonlinear fitting was performed according to the administrating dosage and the tumor growth inhibition rate TGI (%) corresponding to each dosage using GraphPad Prism 8. The fitting formula is as follows and its ED50 (half effective dose) was calculated: Y=Bottom+(Top-Bottom)/(1+10^((Log ED50−X)*HillSlope)).
TGI was calculated according to the administration dosage and tumor growth volume of Comparative example 1. Nonlinear fitting was performed on the administration dosage and corresponding TGI (%). […] It can be seen that the half effective dose of compound J-022, which is 10 mg/kg/day, is equivalent to that of Comparative example 1.

Series [8] is described as follows: In vivo safety experiment (body weight, tolerance). Particulars: for Mortality of mice / Body weight of mouse: 75 mg/kg/day oral QD; for Mortality of mice: 7 consecutive days, 5 mice.
Protocol: The safety evaluation of the drug was carried out in BALB/c nude mice. […] They were fed in an SPF environment, and each cage was individually ventilated (5 mice per cage). All cages, bedding and water were disinfected prior to use. Mice were purchased from Viton Lever and were allowed to acclimate in the laboratory. Mice were administered orally QD.

Here are results for eight compounds from patent publication US20230131025A1, “QUINOLYL PHOSPHINE OXIDE COMPOUND, AND COMPOSITION AND APPLICATION THEREOF” (Betta Pharmaceuticals Co., Ltd., priority 2020, published 2023).

SMILES strings stand for the structures.

Chain of Ba/F3 EGFR WT (P00533 whole entry, stated change not applied): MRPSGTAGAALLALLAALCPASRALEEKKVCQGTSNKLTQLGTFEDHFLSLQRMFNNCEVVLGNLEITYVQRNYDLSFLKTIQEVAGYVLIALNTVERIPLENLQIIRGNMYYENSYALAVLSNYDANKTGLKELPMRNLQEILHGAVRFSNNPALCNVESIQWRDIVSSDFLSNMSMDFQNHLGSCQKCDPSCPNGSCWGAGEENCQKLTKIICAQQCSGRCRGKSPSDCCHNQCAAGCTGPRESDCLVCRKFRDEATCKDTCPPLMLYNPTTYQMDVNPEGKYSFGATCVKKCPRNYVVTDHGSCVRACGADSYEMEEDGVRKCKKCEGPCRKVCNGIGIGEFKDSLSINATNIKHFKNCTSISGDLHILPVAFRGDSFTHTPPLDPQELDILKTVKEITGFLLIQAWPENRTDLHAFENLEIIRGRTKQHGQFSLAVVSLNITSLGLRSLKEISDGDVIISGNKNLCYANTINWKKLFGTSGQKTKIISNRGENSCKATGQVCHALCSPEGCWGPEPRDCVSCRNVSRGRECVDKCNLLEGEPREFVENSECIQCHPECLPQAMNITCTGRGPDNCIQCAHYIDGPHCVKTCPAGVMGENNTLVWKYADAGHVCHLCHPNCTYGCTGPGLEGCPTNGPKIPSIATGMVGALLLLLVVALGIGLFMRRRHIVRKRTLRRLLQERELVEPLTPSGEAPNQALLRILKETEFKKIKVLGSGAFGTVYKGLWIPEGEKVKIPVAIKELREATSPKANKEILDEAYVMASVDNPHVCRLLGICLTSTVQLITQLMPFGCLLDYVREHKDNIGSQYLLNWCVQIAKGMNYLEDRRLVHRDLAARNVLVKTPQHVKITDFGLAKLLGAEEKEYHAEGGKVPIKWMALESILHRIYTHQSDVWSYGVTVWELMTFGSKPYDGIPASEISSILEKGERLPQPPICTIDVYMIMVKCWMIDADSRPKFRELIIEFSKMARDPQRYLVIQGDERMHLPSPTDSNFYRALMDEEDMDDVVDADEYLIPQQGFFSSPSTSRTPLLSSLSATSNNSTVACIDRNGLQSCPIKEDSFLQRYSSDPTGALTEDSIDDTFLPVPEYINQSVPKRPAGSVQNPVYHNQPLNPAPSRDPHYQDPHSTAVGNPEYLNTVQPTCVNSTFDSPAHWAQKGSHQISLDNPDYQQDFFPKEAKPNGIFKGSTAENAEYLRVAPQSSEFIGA
Chain of EGFR WT (P00533 25-1210): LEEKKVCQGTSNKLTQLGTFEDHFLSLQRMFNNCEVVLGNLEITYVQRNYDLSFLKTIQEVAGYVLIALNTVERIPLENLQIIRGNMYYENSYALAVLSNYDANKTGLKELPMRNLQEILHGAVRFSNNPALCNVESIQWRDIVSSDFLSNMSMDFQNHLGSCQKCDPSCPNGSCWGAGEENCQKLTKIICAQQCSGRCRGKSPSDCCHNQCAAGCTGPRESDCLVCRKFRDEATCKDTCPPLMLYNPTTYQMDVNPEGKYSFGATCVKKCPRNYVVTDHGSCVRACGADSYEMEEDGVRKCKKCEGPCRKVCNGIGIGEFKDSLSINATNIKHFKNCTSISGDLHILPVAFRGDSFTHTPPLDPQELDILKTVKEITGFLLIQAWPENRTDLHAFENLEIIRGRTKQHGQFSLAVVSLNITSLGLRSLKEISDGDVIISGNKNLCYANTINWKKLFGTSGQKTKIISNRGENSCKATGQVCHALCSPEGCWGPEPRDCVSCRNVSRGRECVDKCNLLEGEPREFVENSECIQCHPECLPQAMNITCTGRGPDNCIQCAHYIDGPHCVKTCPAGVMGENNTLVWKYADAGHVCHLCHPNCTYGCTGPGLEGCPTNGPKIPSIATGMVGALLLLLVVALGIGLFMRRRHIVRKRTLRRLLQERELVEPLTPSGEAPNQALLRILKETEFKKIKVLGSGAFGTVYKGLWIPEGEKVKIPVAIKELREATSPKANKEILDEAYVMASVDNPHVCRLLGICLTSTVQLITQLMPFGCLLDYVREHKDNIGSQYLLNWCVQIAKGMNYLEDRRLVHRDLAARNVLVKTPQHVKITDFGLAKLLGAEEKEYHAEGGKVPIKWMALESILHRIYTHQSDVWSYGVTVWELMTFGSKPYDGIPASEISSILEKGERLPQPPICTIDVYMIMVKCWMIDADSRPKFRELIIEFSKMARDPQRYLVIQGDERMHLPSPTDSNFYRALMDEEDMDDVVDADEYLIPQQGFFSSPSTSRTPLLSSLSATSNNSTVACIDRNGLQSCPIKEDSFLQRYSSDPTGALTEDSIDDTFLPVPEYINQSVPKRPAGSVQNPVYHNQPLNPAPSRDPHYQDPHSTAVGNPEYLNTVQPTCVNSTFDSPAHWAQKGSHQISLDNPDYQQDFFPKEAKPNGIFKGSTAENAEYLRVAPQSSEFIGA
Chain of Ba/F3-Δ19del/T790M/C797S (P00533 with tags, fused parts or gaps DEL746-750/T790M/C797S, form open): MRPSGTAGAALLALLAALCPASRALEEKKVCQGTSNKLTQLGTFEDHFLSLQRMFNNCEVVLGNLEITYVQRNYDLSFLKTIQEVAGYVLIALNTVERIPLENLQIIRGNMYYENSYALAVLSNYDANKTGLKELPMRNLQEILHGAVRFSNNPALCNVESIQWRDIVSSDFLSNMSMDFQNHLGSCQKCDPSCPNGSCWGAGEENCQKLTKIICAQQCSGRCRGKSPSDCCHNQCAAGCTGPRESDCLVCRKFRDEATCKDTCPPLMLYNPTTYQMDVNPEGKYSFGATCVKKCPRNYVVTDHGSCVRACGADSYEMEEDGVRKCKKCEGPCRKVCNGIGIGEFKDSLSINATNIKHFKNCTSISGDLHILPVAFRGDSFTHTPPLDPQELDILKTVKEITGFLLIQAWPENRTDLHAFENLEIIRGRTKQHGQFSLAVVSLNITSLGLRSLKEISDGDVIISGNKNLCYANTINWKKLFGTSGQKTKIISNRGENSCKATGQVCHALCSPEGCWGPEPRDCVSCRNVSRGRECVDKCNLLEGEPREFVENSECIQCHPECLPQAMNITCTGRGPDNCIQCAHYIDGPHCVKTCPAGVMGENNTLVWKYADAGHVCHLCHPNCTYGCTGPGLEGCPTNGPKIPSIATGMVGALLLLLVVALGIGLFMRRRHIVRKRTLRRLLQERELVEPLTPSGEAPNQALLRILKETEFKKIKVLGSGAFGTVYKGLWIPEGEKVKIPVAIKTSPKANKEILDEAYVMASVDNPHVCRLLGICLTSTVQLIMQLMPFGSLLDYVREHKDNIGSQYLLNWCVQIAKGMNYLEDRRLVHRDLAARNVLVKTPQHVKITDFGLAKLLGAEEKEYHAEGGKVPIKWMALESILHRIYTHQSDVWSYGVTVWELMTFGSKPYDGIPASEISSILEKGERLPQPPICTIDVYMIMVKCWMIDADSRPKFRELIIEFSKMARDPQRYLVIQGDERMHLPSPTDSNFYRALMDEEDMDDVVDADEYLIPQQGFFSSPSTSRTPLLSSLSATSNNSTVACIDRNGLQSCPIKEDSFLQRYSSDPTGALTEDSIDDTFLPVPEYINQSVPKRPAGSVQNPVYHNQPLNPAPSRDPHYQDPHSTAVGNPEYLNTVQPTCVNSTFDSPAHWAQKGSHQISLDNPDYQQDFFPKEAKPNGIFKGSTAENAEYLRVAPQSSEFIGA
Chain of EGFR Δ19del/T790M/C797S (P00533 with tags, fused parts or gaps DEL746-750/T790M/C797S, form open): as above

With `CCc1ccc2c(P(C)(C)=O)c(Nc3nc(Nc4cc(C)c(N5CCC(N6CCN(C)CC6)CC5)cc4OC)ncc3Br)ccc2n1` [Compound J-028, (6-((5-Bromo-2-((2-methoxy-5-methyl-4-(4-(4-methylpiperazin-1-yl)piperidin-1-yl)phenyl)amino)pyrimidin-4-yl)amino)-2-ethylquinolin-5-yl)dimethylphosphine oxide], the IC50 (usually the concentration that gives 50% inhibition) in series [1] came out at 19 nM; in series [2] it was 0.14 nM; in series [3], 116 nM; in series [6] it was 842 nM. Moreover, the GI50 was 155 nM in series [4] and 20.8 nM in series [5].

As to `CCc1cc(Nc2ncc(Br)c(Nc3ccc4nc(C#N)ccc4c3P(C)(C)=O)n2)c(OC)cc1N1CCC(N2CCN(C)CC2)CC1` [Compound J-016, 6-((5-Bromo-2-((5-ethyl-2-methoxy-4-(4-(4-methylpiperazin-1-yl)piperidin-1-yl)phenyl)amino)pyrimidin-4-yl)amino)-5-(dimethylphosphineoxide)quinoline-2-formonitrile], the IC50 amounted to 4.6 nM in series [1], 0.3 nM in series [2], 16.8 nM in series [3] and 379 nM in series [6]. Further, the GI50 in series [4] was 132 nM; in series [5] it was 5.1 nM.

Regarding `CCc1cc(Nc2ncc(Br)c(Nc3ccc4nccnc4c3P(C)(C)=O)n2)c(OC)cc1N1CCC(N2CCN(C)CC2)CC1` [Comparable example 1, reference compound], in series [1], the “EGFR WT IC50” value is recorded as “strong inhibitory activity” and the IC50 is 5.1 nM. Further, the “EGFR Δ19del/T790M/C797S IC50” value in series [2] is given as “strong inhibitory effect”. In series [3], the IC50 stood at 9.5 nM and the “IGF1R IC50” value was “strong inhibitory activity”. Further, in series [4], the “BaF3 EGFR WT IC50” value is recorded as “strong inhibitory effect” and the GI50 is 39.9 nM. In series [5], the “Ba/F3/EGFR Δ19del/T790M/C797S IC50” value is listed as “strong inhibitory effect” and the GI50 worked out at 9 nM. The “A431 IC50” value in series [6] is reported as “certain inhibitory effect”. In addition, the “half effective dose ED50 (dosage at TGI 50%)” value in series [7] is 8.7 mg/kg/day. In addition, in series [8], the Mortality of mice entry is on record as “all the 5 mice died on the 6th day”. In addition, in series [8] (listed as Comparative example 1), the Mortality of mice entry is on record as “all mice died of intolerance”. Besides, in series [8] (2 days), the “Body weight of mouse” value is recorded as “began to decrease”. Further, in series [8] (4 days), the “Body weight of mouse” value is listed as “decreased significantly”. In addition, the “window from the effective dose to the intolerance dose” value in series [8] (effective dose = dose corresponding to 50% TGI) is on record as “less than 8.6 times”.

For `C#Cc1ccc2c(P(C)(C)=O)c(Nc3nc(Nc4cc(OC)c(N5CCC(N6CCN(C)CC6)CC5)cc4C)ncc3Br)ccc2n1` [Compound J-015, (6-((5-Bromo-2-((5-methoxy-2-methyl-4-(4-(4-methylpiperazin-1-yl)piperidin-1-yl)phenyl)amino)pyrimidin-4-yl)amino)-2-ethynylquinolin-5-yl)dimethylphosphine oxide], the IC50 in series [1] turned out to be 12.1 nM; in series [2], 0.29 nM; in series [3], 12.1 nM; in series [6], 678 nM. For the same compound, the figures for the GI50 in series [4] and in series [5] were 388 nM and 15.8 nM, respectively.

Regarding `COc1cc(N2CCC(N3CCN(C)CC3)CC2)c(C#N)cc1Nc1ncc(Br)c(Nc2ccc3nc(C4CC4)ccc3c2P(C)(C)=O)n1` [Compound J-021, 5-((5-Bromo-4-((2-cyclopropyl-5-(dimethylphosphineoxide)quinolin-6-yl)amino)pyrimidin-2-yl)amino)-4-methoxy-2-(4-(4-methylpiperazin-1-yl)piperidin-1-yl)benzonitrile], the IC50 in series [1] was found to be 19.3 nM; in series [2] it was 0.3 nM; in series [3], 293 nM; in series [6], 1140 nM. Further, the GI50 was determined as 238 nM in series [4] and 11.7 nM in series [5].

With `CCc1cc(Nc2ncc(Br)c(Nc3ccc4nc(C5CC5)ccc4c3P(C)(C)=O)n2)c(OC)cc1N1CCN(C)CC1` [Compound J-011, (6-((5-Bromo-2-((5-ethyl-2-methoxy-4-(4-methylpiperazin-1-yl)phenyl)amino)pyrimidin-4-yl)amino)-2-cyclopropylquinolin-5-yl)dimethylphosphine oxide], the IC50 in series [1] was 45.8 nM; in series [2], 0.7 nM; in series [3], 146 nM; in series [6] it was 1160 nM. For the same compound, the GI50 in series [4] stood at 190 nM; in series [5], 4.7 nM.

As for `COc1cc(Nc2ncc(Br)c(Nc3ccc4nc(C5CC5)ccc4c3P(C)(C)=O)n2)c(C)cc1N1CCN(C2CCCC2)CC1` [Compound J-039, (6-((5-Bromo-2-((4-(4-cyclopentylpiperazin-1-yl)-5-methoxy-2-methylphenyl)amino)pyrimidin-4-yl)amino)-2-cyclopropylquinolin-5-yl)dimethylphosphine oxide], the IC50 in series [1] came out at 33.5 nM; in series [2], 0.5 nM; in series [3], 21.5 nM; in series [6] it was 1110 nM. For the same compound, the GI50 came out at 256 nM in series [4] and 12 nM in series [5].

Turning to `COc1cc(Nc2ncc(Br)c(Nc3ccc4nc(C5CC5)ccc4c3P(C)(C)=O)n2)cc(C)c1N1CCC(N2CCN(C)CC2)CC1` [Compound J-029, (6-((5-Bromo-2-((3-methoxy-5-methyl-4-(4-(4-methylpiperazin-1-yl)piperidin-1-yl)phenyl)amino)pyrimidin-4-yl)amino)-2-cyclopropylquinolin-5-yl)dimethylphosphine oxide], the IC50 in series [1] was determined as 41.3 nM; in series [2], 0.22 nM; in series [3], 58.1 nM; in series [6] it was 204 nM. The GI50 in series [4] stood at 98.5 nM; in series [5] it was 12.1 nM.
